{"source": "patent US7635691B2", "about": "“Use of CDP-choline for the prophylactic treatment of cerebral ischemia” (Ferrer Internacional, S.A., priority 2000, dated 2009)", "test_system": "caspases 1, 2, 3, 6 and 8", "assay": "Caspase expression (apoptosis markers) after permanent middle cerebral artery occlusion, model of cortical cerebral ischemia in the rat", "assay_type": "in vivo", "description": "The effect of CDP-Choline on deferred nerve cell death (apoptosis) has been assessed in a model of cortical cerebral ischemia in the rat in accordance with the following experimental protocol:\nAll cerebral infarction tests were performed in male Sprague-Dawley rats weighing 220-270 g. Animals were housed, with free access to food and water, in temperature- and humidity-controlled rooms with a 12/12 h light-dark cycle.\nCerebral ischemia was induced by a permanent proximal occlusion of the middle cerebral artery using electrocoagulation. Under deep anesthesia, the rat head was clipped and an incision was made between the left ear and the left eye. Then, the cranium was exposed by sectioning the temporal muscle. Craniotomy was performed using a 1-2 mm drill behind the scaly fissure. The dura mater was drilled in order to expose the middle cerebral artery arm which was permanently coagulated.\nRats were randomly divided into three groups:\n(a) After 30 minutes of ischemia, the animals in this group were treated with CDP-Choline (500 mg/kg) in 0.9% sterile physiologic saline (0.1 ml) administered intraperitoneally. This group is depicted in FIGS. 1 through 5 as “After.”\n(b) Since 24 hours before ischemia and after 30 minutes of ischemia, the animals in this group received the same treatment as in group (a). This group is depicted in FIGS. 1 through 5 as “Before.”\n(c) The animals in this group were used as control. After ischemia, they were treated with 0.9% physiologic saline vehicle (0.1 ml) administered intraperitoneally. This group is depicted in FIGS. 1 through 5 as “Control.”\nThe animals were allowed to recover at different times (30 min and 1, 4, 8, 12, 24 and 48 hours) before terminal anesthesia with ethyl ether. […]\nFor assessment of the effect of treatment, the expression of caspases 1, 2, 3, 6 and 8, as markers of apoptosis process, was measured 12 hours after infarction induction, whose results are shown in FIGS. 1, 2, 3, 4, and 5, respectively. […]", "data": [{"smiles": "C[N+](C)(C)CCOP(=O)(O)OP(=O)([O-])OC[C@H]1O[C@@H](n2ccc(N)nc2=O)[C@H](O)[C@@H]1O", "note": "[CDP-Choline, cytidine-diphosphate-choline]", "values": [{"measurement": "caspase level, treatment before and after ischemia compared with treatment only after ischemia", "setting": "500 mg/kg intraperitoneally from 24 hours before ischemia and 30 minutes after ischemia ('Before') vs only 30 minutes after ischemia ('After'), 12 hours after infarction induction", "result": "decreases caspase level more significantly than when administered only after infarction induction"}, {"measurement": "expression of caspases 1, 2, 3, 6 and 8 as markers of apoptosis process, treated vs control", "setting": "male Sprague-Dawley rats, CDP-Choline 500 mg/kg intraperitoneally, groups 'After' and 'Before' vs saline control, measured 12 hours after infarction induction, figures in immunofluorescence units", "result": "significant differences between treated and control animals"}, {"measurement": "nerve cell apoptosis in the penumbra area", "setting": "summary statement in the description, rat focal ischemia model", "result": "reduces nerve cell apoptosis in the penumbra area"}]}]}
